Laboratory results: US20250186456A1, “PYRIMIDINE-FUSED CYCLIC COMPOUND AND PREPARATION METHOD AND USE THEREOF” (Genfleet Therapeutics (Shanghai) Inc., priority 2021, published 2025)
pIC50: −log10 of the molar value. Where two headings read alike, the source gives them in different places.

Columns and labels:
Assay type in all cases: cell-based, human
[1] = system: p-ERK in AGS cells (KRAS G12D mutation); assay: Cell p-ERK assay (HTRF, Advance ERK phospho-T202/Y204 kit); details: AGS cells, 3 hours incubation with compound, HTRF, read-out: AGS p-ERK IC50
Method: AGS was purchased from ATCC; catalog No: CRL-1739; F12K was purchased from Gibco; catalog No: 21127-022; FBS was purchased from Gibco; catalog No: 10099-141C; trypsin (containing EDTA) was purchased from Gibco, catalog No: 25200-072; DMSO was purchased from VWRAMRESCO; catalog No: 0231-500 ML; 96-well cell culture plates were purchased from Corning; catalog No: 3599; white opaque 96-well plates were purchased from Cisbio; catalog No: 66PL96025; Advance ERK phospho-T202/Y204 kit was purchased from Cisbio; catalog No: 64AERPEH; cell counters were purchased from CHEMOMETEC; model No: NC-200; microplate reader was purchased from PerkinElmer; model No: Envison.
AGS is an endogenous human gastric adenocarcinoma cell line containing the KRAS^G12D mutation, cultured in F12K+10% FBS medium. On the first day of the experiment, cells in the logarithmic growth phase were taken, digested with trypsin (containing EDTA), collected, and counted. Approximately 20000 cells/well were seeded in a 96-well cell culture plate and cultured overnight in an incubator with 5% CO2. 1000X stock solutions of compounds at a 3.16-fold concentration gradient were prepared using DMSO, and diluted 200-fold into a 5X compound stock solution using the medium described above. The 5X compound stock solution was added to each cell culturing well the day after cell seeding at a final concentration of 1X and a DMSO content of 0.1%. DMSO was used as a control in the experiment. After the compound was added and the incubation was kept for 3 hours, the medium in the culture wells was removed. 50 μl of Cell lysis solution (from Advance ERK phospho-T202/Y204 kit, the same below) was added to each well, mixed well, and incubated for 30 minutes and then 16 μl of the mixed solution was transferred to a white opaque 96-well plate, another 16 μl of cell lysis solution was added to a well as a blank well. After transferring, 4 μl of p-ERK HTRF antibody mixture (from Advance ERK phospho-T202/Y204 kit) was added to each well. After incubation for 4 hours, HTRF fluorescence value (RLU) was read by a microplate reader, and p-ERK level inhibition rate (IR (%)=(RLU control-RLU compound)/(RLU control-RLU blank)×100%) of the compounds was calculated. The concentration of the compounds and corresponding cell p-ERK level inhibition rate were fitted using Prism 8 four-parameters method, and the IC50 value was calculated.

[2] = system: AsPC-1 cells (KRAS G12D mutation); assay: Cell proliferation inhibition assay, 3D, CellTiter-Glo 3D, AsPC-1; details: AsPC-1 3D sphere model, 5 days incubation
Source text: (§1) AsPC-1 was purchased from ATCC; catalog No: CRL-1682; AGS was purchased from ATCC; catalog No: CRL-1739; RPMI1640 was purchased from Gibco; catalog No: 11875-093 2235123; F12K was purchased from Gibco; catalog No: 21127-022; FBS was purchased from Gibco; catalog No: 10099-141C; trypsin (containing EDTA) was purchased from Gibco; catalog No: 25200-072; CellTiter Glo-3D was purchased from Progema; catalog No: G9683; 384-well sphere plates were purchased from Corning; catalog No: 3830; white opaque 384-well plates were purchased from Corning; catalog No: 3570; cell counters were purchased from CHEMOMETEC; model: NC-200; microplate reader was purchased from PerkinElmer; model: Envison;
(§2) AsPC-1 is an endogenous human pancreatic cancer cell containing KRAS^G12D mutation, cultured in RPMI-1640 medium containing 10% FBS; AGS is a human gastric cancer cell line containing KRAS^G12D, cultured in F-12K medium containing 10% FBS. Cells in the logarithmic growth phase were taken, digested with trypsin (containing EDTA), collected, and counted. 800 AsPC-1 cells/well or 400 AGS cells/well, respectively, were seeded in a 384-well sphere plate and cultured overnight at 5% CO2 to establish a 3D cell model. 1000X stock solutions of compounds at a 3.16-fold concentration gradient of were prepared using DMSO, diluted 100-fold into a 10X compound stock solution using the medium described above. The 10X compound stock solution was added to each cell on 2nd day after cell seeding at a final concentration of 1X and a DMSO content of 0.1%. DMSO was used as a control in the experiment, and the medium was used as blank. After the addition of the compounds, the cells were incubated for 5 days. 30 μl of CellTiter-Glo work solution was added to each well, mixed well, and incubated for 30 minutes. After standing at room temperature for 30 minutes, 40 μl of the mixed solution was transferred to an opaque 384-well plate with a white clear bottom. Luminescence chemiluminescence value was read by a microplate reader, and the cell proliferation inhibition rate (IR (%)=(RLU control-RLU compound)/(RLU control-RLU blank)×100%) was calculated. The gradiently diluted concentration of the compounds and corresponding cell proliferation inhibition rate were fitted using XLFit four-parameters method, and the IC50 value was calculated. […] The results of some exemplary compounds are shown in Table 2 (“−” represents untested).

[3] = system: AGS cells (KRAS G12D); assay: Cell proliferation inhibition assay, 3D, CellTiter-Glo 3D, AGS; details: AGS 3D sphere model, 5 days incubation
Source text: as §1, §2

| pIC50 [1] | pIC50 [2] | pIC50 [3] | Structure (SMILES) | pIC50 ([1]; Homo sapiens) | pIC50 ([2]; Homo sapiens, ASPC1, 120 h) | pIC50 ([3]; Homo sapiens, 120 h) |
| --- | --- | --- | --- | --- | --- | --- |
|  |  |  | C#Cc1cccc2cc(N)cc(-c3nc4c5c(nc(OCC67CCCN6CC(F)(F)C7)nc5c3F)N3C[C@H]5CC[C@H](N5)[C@H]3[C@H](C)O4)c12 (stereo partly drawn) [Example Z706, 4-((5S,5aS,6S,9R)-12-((2,2-difluorotetrahydro-1H-pyrrolizin-7a (5H)-yl)methoxy)-1-fluoro-5-methyl-5a,6,7,8,9,10-hexahydro-5H-4-oxa-3,10a,11,13,14-pentaaza-6,9-methanonaphtho[1,8-ab]heptalen-2-yl)-5-ethynylnaphthalen-2-amine] | 8.18 | 7.42 | 7.59 |
|  |  |  | C#Cc1c(F)ccc2cccc(-c3nc4c5c(nc(OCC67CC(=C)CN6C[C@H](F)C7)nc5c3F)N3C[C@H]5CC[C@H](N5)[C@H]3[C@H](C)O4)c12 (stereo partly drawn) [Example Z633, (5S,5aS,6S,9R)-2-(8-ethynyl-7-fluoronaphthalen-1-yl)-1-fluoro-12-(((2R)-2-fluoro-6-methylenetetrahydro-1H-pyrrolizin-7a (5H)-yl)methoxy)-5-methyl-5a,6,7,8,9,10-hexahydro-5H-4-oxa-3,10a,11,13,14-pentaaza-6,9-methanonaphtho[1,8-ab]heptalene] | 7.84 | 7.25 | 7.23 |
|  |  |  | Cc1cc(N)c(C)c(-c2nc3c4c(nc(OCC5(CN6CCOCC6)CC5)nc4c2F)N2C[C@H]4CC[C@H](N4)[C@H]2[C@H](C)O3)c1C1CC1 [Example Z717, 4-cyclopropyl-3-((5S,5aS,6S,9R)-1-fluoro-5-methyl-12-((1-(morpholinomethyl)cyclopropyl)methoxy)-5a,6,7,8,9,10-hexahydro-5H-4-oxa-3,10a, 11,13,14-pentaaza-6,9-methanonaphtho[1,8-ab]heptalen-2-yl)-2,5-dimethylaniline] | 7.83 | 7.30 | 7.54 |
|  |  |  | C#Cc1c(F)ccc2cc(O)cc(-c3nc4c5c(nc(OCC67CC(=C)CN6CC(=C)C7)nc5c3F)N3C[C@H]5CC[C@H](N5)[C@H]3CCO4)c12 [Example Z598] | 9.17 | 8.26 | 8.91 |
|  |  |  | C#Cc1c(F)ccc2cccc(-c3nc4c5c(nc(OCC(=C)CN6CCOCC6)nc5c3F)N3C[C@H]5CC[C@H](N5)[C@H]3[C@H](C)O4)c12 [Example Z687, (5S,5aS,6S,9R)-2-(8-ethynyl-7-fluoronaphthalen-1-yl)-1-fluoro-5-methyl-12-((2-(morpholinomethyl)allyl)oxy)-5a,6,7,8,9,10-hexahydro-5H-4-oxa-3,10a,11,13,14-pentaaza-6,9-methanonaphtho[1,8-ab]heptalene] | 6.72 | 6.29 | 6.41 |
|  |  |  | C#Cc1c(F)ccc2cccc(-c3nc4c5c(nc(OC[C@]67CCCN6CCC7=C)nc5c3F)N3C[C@H]5CC[C@H](N5)[C@H]3[C@H](C)O4)c12 (single isomer, unassigned) [Example Z638] | 8.11 | 7.49 | 7.71 |
|  |  |  | C#Cc1c(F)ccc2cccc(-c3nc4c5c(nc(OCC67CC(=C)CN6[C@@H]6C[C@@H]6C7)nc5c3F)N3C[C@H]5CC[C@H](N5)[C@H]3[C@H](C)O4)c12 (stereo partly drawn) [Example Z603, (5S,5aS,6S,9R)-2-(8-Ethynyl-7-Fluoronaphthalen-1-Yl)-1-Fluoro-5-Methyl-12-(((1aR,6aR)-4-Methylenehexahydrocyclopropa[b]Pyrrolizin-5a (3H)-Yl)Methoxy)-5a,6,7,8,9,10-Hexahydro-5H-4-Oxa-3,10a,11,13,14-Pentaaza-6,9-Methanonaphtho[1,8-Ab]Heptalene] | 7.19 | 6.66 | 6.96 |
|  |  |  | C#Cc1cccc2cc(N)nc(-c3nc4c5c(nc(OCC67CC(=C)CN6C[C@H](F)C7)nc5c3F)N3C[C@H]5CC[C@H](N5)[C@H]3[C@H](C)O4)c12 (stereo partly drawn) [Example Z685, 8-Ethynyl-1-((5S,5aS,68,9R)-1-Fluoro-12-(((2R)-2-Fluoro-6-Methylenetetrahydro-1H-Pyrrolizin-7a (5H)-Yl)Methoxy)-5-Methyl-5a,6,7,8,9,10-Hexahydro-5H-4-Oxa-3,10a,11,13,14-Pentaaza-6,9-Methanonaphtho[1,8-Ab]Heptalen-2-Yl) Isoquinolin-3-Amine] | 7.52 | 6.59 | 6.84 |
| 6.93 | 6.45 | 6.41 | C#Cc1c(F)ccc2cccc(-c3nc4c5c(nc(OCC67CC(=C)CN6C[C@H](F)C7)nc5c3F)N3CC5CCC(N5)C3C(CF)O4)c12 (stereo partly drawn) [Example Z679, 2-(8-Ethynyl-7-Fluoronaphthalen-1-Yl)-1-Fluoro-12-(((2R)-2-Fluoro-6-Methylenetetrahydro-1H-Pyrrolizin-7a (5H)-Yl)Methoxy)-5-(Fluoromethyl)-5a,6,7,8,9,10-Hexahydro-5H-4-Oxa-3.10a,11,13,14-Pentaaza-6,9-Methanonaphtho[1,8-Ab]Heptalene] |  |  |  |
|  |  |  | C#Cc1cccc2c(F)c(N)cc(-c3nc4c5c(nc(OCC67CC(=C)CN6CC(=C)C7)nc5c3F)N3C[C@H]5CC[C@H](N5)[C@H]3[C@H](C)O4)c12 [Example Z727, 4-((5S,5aS,6S,9R)-12-((2,6-dimethylenetetrahydro-1H-pyrrolizin-7a (5H)-yl)methoxy)-1-fluoro-5-methyl-5a,6,7,8,9,10-hexahydro-5H-4-oxa-3,10a, 11,13,14-pentaaza-6,9-methanonaphtho[1,8-ab]heptalene-2-yl)-5-ethynyl-1-fluoronaphthalen-2-amine] | 8.30 | 7.91 | 8.03 |
|  |  |  | C#Cc1c(F)ccc2cc(O)cc(-c3nc4c5c(nc(OCC67CC(=C)CN6CC(=C)C7)nc5c3F)N3C[C@H]5CC[C@H](N5)[C@H]3CO4)c12 [Example Z380, 4-((5aS,6S,9R)-12-((2,6-Dimethylenetetrahydro-1H-Pyrrolizin-7a (5H)-Yl)Methoxy)-1-Fluoro-5a,6,7,8,9,10-Hexahydro-5H-4-Oxa-3,10a,11,13,14-Pentaaza-6,9-Methanonaphtho[1,8-Ab]Heptalen-2-Yl)-5-Ethynyl-6-Fluoronaphthalen-2-Ol] | 9.11 | 7.58 | 8.57 |
|  |  |  | Cc1cc(-c2nc3c4c(nc(OCC5(CN6CCOCC6)CC5)nc4c2F)N2C[C@H]4CC[C@H](N4)[C@H]2[C@H](C)O3)c(C)c(N)c1C1CC1 [Example Z716, 2-cyclopropyl-5-((5S,5aS,6S,9R)-1-fluoro-5-methyl-12-((1-(morpholinomethyl)cyclopropyl)methoxy)-5a,6,7,8,9,10-hexahydro-5H-4-oxa-3,10a, 11,13,14-pentaaza-6,9-methanonaphtho[1,8-ab]heptalen-2-yl)-3,6-dimethylaniline] | 7.09 | 7.05 | 7.31 |
